# Measured values reported in US11951094B2, “TLR2 modulator compounds, pharmaceutical compositions and uses thereof” (Axial Therapeutics, Inc., priority 2020, dated 2024).
# pEC50: −log10 of the molar value.
# Target: TLR2 (Homo sapiens, UniProt O60603)
# Experiment: TLR2 agonist screening assay, HEK-Blue TLR2 reporter cell line (NF-kB-driven SEAP, absorbance at 600 nm)
# Type: cell-based
# Set-up: host or cells: HEK-293 (HEK-Blue TLR2 reporter cell line)
# Conditions: HEK-Blue TLR2 reporter cells, agonist mode; average of all runs (Table 4)
# Method in brief: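 Read-out: SEAP colour change, A600, after overnight agonist exposure. Cells: HEK-293 overexpressing TLR2, NF-kB-SEAP reporter, ~40,000/well, plated 16-24 h prior.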
# TLR2, sequence (O60603 21-784): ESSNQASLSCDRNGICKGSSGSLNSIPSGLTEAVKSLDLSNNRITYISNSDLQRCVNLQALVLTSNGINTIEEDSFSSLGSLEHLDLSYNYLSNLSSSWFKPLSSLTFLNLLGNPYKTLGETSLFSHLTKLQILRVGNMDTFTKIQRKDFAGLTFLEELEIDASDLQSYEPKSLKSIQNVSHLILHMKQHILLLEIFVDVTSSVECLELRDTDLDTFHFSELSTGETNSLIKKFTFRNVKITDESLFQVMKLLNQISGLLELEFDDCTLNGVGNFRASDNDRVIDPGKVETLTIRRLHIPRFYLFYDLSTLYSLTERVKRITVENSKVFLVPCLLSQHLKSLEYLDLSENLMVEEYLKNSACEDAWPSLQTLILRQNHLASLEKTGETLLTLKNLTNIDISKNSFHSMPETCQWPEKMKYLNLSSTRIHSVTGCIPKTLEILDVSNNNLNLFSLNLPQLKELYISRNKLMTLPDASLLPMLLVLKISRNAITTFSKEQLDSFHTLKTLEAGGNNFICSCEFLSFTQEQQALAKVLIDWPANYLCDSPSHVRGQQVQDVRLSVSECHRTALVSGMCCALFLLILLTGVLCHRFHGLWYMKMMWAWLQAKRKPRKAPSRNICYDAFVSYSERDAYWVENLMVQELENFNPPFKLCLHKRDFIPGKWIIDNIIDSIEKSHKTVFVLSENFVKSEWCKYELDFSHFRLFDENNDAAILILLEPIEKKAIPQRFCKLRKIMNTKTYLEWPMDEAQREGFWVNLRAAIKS
row,SMILES,pEC50
1,"CCCCCCCCCCCCCNC(=O)N[C@H]1CN(c2nnc(-c3ccc(C(=O)N4C[C@@H](C(=O)N[C@H]5C[C@@H]5c5ccccc5)[C@H](C(=O)N[C@H]5C[C@@H]5c5ccccc5)C4)cc3)[nH]2)C[C@@H]1OC [Compound 237, (3S,4S)-1-(4-(5-((3S,4S)-3-methoxy-4-(3-tridecylureido)pyrrolidin-1-yl)-4H-1,2,4-triazol-3-yl)benzoyl)-N3,N4-bis((1S,2R)-2-phenylcyclopropyl)pyrrolidine-3,4-dicarboxamide]",< 6.00
2,"CCCCCCCCCCCCCNC(=O)N[C@H]1CN(C(=O)Nc2ccc(C(=O)N3C[C@@H](C(=O)N[C@H]4C[C@@H]4c4ccccc4)[C@H](C(=O)N[C@H]4C[C@@H]4c4ccccc4)C3)cc2)C[C@@H]1OC [Compound 238, (3S,4S)-1-(4-((3S,4S)-3-methoxy-4-(3-tridecylureido)pyrrolidine-1-carboxamido)benzoyl)-N3,N4-bis((1S,2R)-2-phenylcyclopropyl)pyrrolidine-3,4-dicarboxamide]",6.00 to 6.45
3,"CCCCCCCCCC(=O)N[C@@H](COC(=O)Nc1ccc(C(=O)N2C[C@@H](C(=O)N[C@H]3C[C@@H]3c3ccccc3)[C@H](C(=O)N[C@H]3C[C@@H]3c3ccccc3)C2)cc1)C(=O)NCCCCCC [Compound 239, (S)-2-decanamido-3-(hexylamino)-3-oxopropyl (4-((3S,4S)-3,4-bis(((1S,2R)-2-phenylcyclopropyl)carbamoyl)pyrrolidine-1-carbonyl)phenyl)carbamate]",7.30 to 10.00
4,"CCCCCCCCCC(=O)N[C@@H](CN1C(=O)c2ccc(C(=O)N3C[C@@H](C(=O)N[C@H]4C[C@@H]4c4ccccc4)[C@H](C(=O)N[C@H]4C[C@@H]4c4ccccc4)C3)cc2C1=O)C(=O)NCCCCCC [Compound 240, (3S,4S)-1-(2-((S)-2-decanamido-3-(hexylamino)-3-oxopropyl)-1,3-dioxoisoindoline-5-carbonyl)-N3,N4-bis((1S,2R)-2-phenylcyclopropyl)pyrrolidine-3,4-dicarboxamide]",< 6.00
5,"CCCCCCCCCC(=O)N[C@@H](CN1Cc2ccc(C(=O)N3C[C@@H](C(=O)N[C@H]4C[C@@H]4c4ccccc4)[C@H](C(=O)N[C@H]4C[C@@H]4c4ccccc4)C3)cc2C1=O)C(=O)NCCCCCC [Compound 241, (3S,4S)-1-(2-((S)-2-decanamido-3-(hexylamino)-3-oxopropyl)-3-oxoisoindoline-5-carbonyl)-N3,N4-bis((1S,2R)-2-phenylcyclopropyl)pyrrolidine-3,4-dicarboxamide]",6.46 to 7.29
6,"CCCCCCCCCC(=O)N[C@@H](CN1Cc2cc(C(=O)N3C[C@@H](C(=O)N[C@H]4C[C@@H]4c4ccccc4)[C@H](C(=O)N[C@H]4C[C@@H]4c4ccccc4)C3)ccc2C1=O)C(=O)NCCCCCC [Compound 242, (3S,4S)-1-(2-((S)-2-decanamido-3-(hexylamino)-3-oxopropyl)-1-oxoisoindoline-5-carbonyl)-N3,N4-bis((1S,2R)-2-phenylcyclopropyl)pyrrolidine-3,4-dicarboxamide]",6.46 to 7.29
7,"CCCCCCCCCC(=O)N[C@@H](Cc1nnc(-c2ccc(C(=O)N3C[C@@H](C(=O)N[C@H]4C[C@@H]4c4ccccc4)[C@H](C(=O)N[C@H]4C[C@@H]4c4ccccc4)C3)cc2)s1)C(=O)NCCCCCC [Compound 243, (3S,4S)-1-(4-(5-((S)-2-decanamido-3-(hexylamino)-3-oxopropyl)-1,3,4-thiadiazol-2-yl)benzoyl)-N3,N4-bis((1S,2R)-2-phenylcyclopropyl)pyrrolidine-3,4-dicarboxamide]",7.30 to 10.00
8,"CCCCCCCCCCCCCNC(=O)N[C@H]1CN(c2ncc(-c3ccc(C(=O)N4C[C@@H](C(=O)N[C@H]5C[C@@H]5c5ccccc5)[C@H](C(=O)N[C@H]5C[C@@H]5c5ccccc5)C4)cc3)s2)C[C@@H]1OC [Compound 244, (3S,4S)-1-(4-(2-((3S,4S)-3-methoxy-4-(3-tridecylureido)pyrrolidin-1-yl)thiazol-5-yl)benzoyl)-N3,N4-bis((1S,2R)-2-phenylcyclopropyl)pyrrolidine-3,4-dicarboxamide]",6.00 to 6.45
9,"CCCCCCCCCCCCCNC(=O)N[C@H]1CN(c2nc3cc(C(=O)N4C[C@@H](C(=O)N[C@H]5C[C@@H]5c5ccccc5)[C@H](C(=O)N[C@H]5C[C@@H]5c5ccccc5)C4)ccc3o2)C[C@@H]1OC [Compound 245, (3S,4S)-1-(2-((3S,4S)-3-methoxy-4-(3-tridecylureido)pyrrolidin-1-yl)benzo[d]oxazole-5-carbonyl)-N3,N4-bis((1S,2R)-2-phenylcyclopropyl)pyrrolidine-3,4-dicarboxamide]",< 6.00
10,"CCCCCCCCCC(=O)N[C@@H](CNc1nc2cc(C(=O)N3C[C@@H](C(=O)N[C@H]4C[C@@H]4c4ccccc4)[C@H](C(=O)N[C@H]4C[C@@H]4c4ccccc4)C3)ccc2o1)C(=O)NCCCCCC [Compound 246, (3S,4S)-1-(2-(((S)-2-decanamido-3-(hexylamino)-3-oxopropyl)amino)benzo[d]oxazole-5-carbonyl)-N3,N4-bis((1S,2R)-2-phenylcyclopropyl)pyrrolidine-3,4-dicarboxamide]",< 6.00
11,"CCCCCCCCCCCCCNC(=O)N[C@H]1CN(c2nc3ccc(C(=O)N4C[C@@H](C(=O)N[C@H]5C[C@@H]5c5ccccc5)[C@H](C(=O)N[C@H]5C[C@@H]5c5ccccc5)C4)cc3o2)C[C@@H]1OC [Compound 247, (3S,4S)-1-(2-((3S,4S)-3-methoxy-4-(3-tridecylureido)pyrrolidin-1-yl)benzo[d]oxazole-6-carbonyl)-N3,N4-bis((1S,2R)-2-phenylcyclopropyl)pyrrolidine-3,4-dicarboxamide]",< 6.00
12,"CCCCCCCCCC(=O)NC(Cn1cnc2ccc(C(=O)N3C[C@@H](C(=O)N[C@H]4C[C@@H]4c4ccccc4)[C@H](C(=O)N[C@H]4C[C@@H]4c4ccccc4)C3)cc2c1=O)C(=O)NCCCCCC (stereo partly drawn) [Compound 248, (3S,4S)-1-(3-(2-decanamido-3-(hexylamino)-3-oxopropyl)-4-oxo-3,4-dihydroquinazoline-6-carbonyl)-N3,N4-bis((1S,2R)-2-phenylcyclopropyl)pyrrolidine-3,4-dicarboxamide]",< 6.00
13,"CCCCCCCCCC(=O)N[C@@H](Cc1nc(-c2ccc(C(=O)N3C[C@@H](C(=O)N[C@H]4C[C@@H]4c4ccccc4)[C@H](C(=O)N[C@H]4C[C@@H]4c4ccccc4)C3)cc2)no1)C(=O)NCCCCCC [Compound 249, (3S,4S)-1-(4-(5-((S)-2-decanamido-3-(hexylamino)-3-oxopropyl)-1,2,4-oxadiazol-3-yl)benzoyl)-N3,N4-bis((1S,2R)-2-phenylcyclopropyl)pyrrolidine-3,4-dicarboxamide]",< 6.00
14,"CCCCCCCCCCCCCCNC(=O)[C@@H]1CN(C(=O)c2ccc(C(=O)N3C[C@@H](C(=O)N[C@H]4C[C@@H]4c4ccccc4)[C@H](C(=O)N[C@H]4C[C@@H]4c4ccccc4)C3)cc2)CCN1C(=O)C(C)C [Compound 250, (3S,4S)-1-(4-((S)-4-isobutyryl-3-(tetradecylcarbamoyl)piperazine-1-carbonyl)benzoyl)-N3,N4-bis((1S,2R)-2-phenylcyclopropyl)pyrrolidine-3,4-dicarboxamide]",< 6.00
15,"CCCCCCCCCCCCCCNC(=O)[C@@H]1CN(C(=O)c2ccc(C(=O)N3C[C@@H](C(=O)N[C@H]4C[C@@H]4c4ccccc4)[C@H](C(=O)N[C@H]4C[C@@H]4c4ccccc4)C3)cc2)CCN1C(=O)C(C)(C)C [Compound 251, (3S,4S)—N3,N4-bis((1S,2R)-2-phenylcyclopropyl)-1-(4-((S)-4-pivaloyl-3-(tetradecylcarbamoyl)piperazine-1-carbonyl)benzoyl)pyrrolidine-3,4-dicarboxamide]",< 6.00
16,"CCCCCCCCCCCCCCNC(=O)[C@@H]1CN(C(=O)c2ccc(C(=O)N3C[C@@H](C(=O)N[C@H]4C[C@@H]4c4ccccc4)[C@H](C(=O)N[C@H]4C[C@@H]4c4ccccc4)C3)cc2)CCN1C(=O)CC(C)C [Compound 252, (3S,4S)-1-(4-((S)-4-(3-methylbutanoyl)-3-(tetradecylcarbamoyl)piperazine-1-carbonyl)benzoyl)-N3,N4-bis((1S,2R)-2-phenylcyclopropyl)pyrrolidine-3,4-dicarboxamide]",< 6.00
17,"CCCCCCCCCCCCCCNC(=O)[C@@H]1CN(C(=O)c2ccc(C(=O)N3C[C@@H](C(=O)N[C@H]4C[C@@H]4c4ccccc4)[C@H](C(=O)N[C@H]4C[C@@H]4c4ccccc4)C3)cc2)CCN1C(=O)CC(C)(C)C [Compound 253, (3S,4S)-1-(4-((S)-4-(3,3-dimethylbutanoyl)-3-(tetradecylcarbamoyl)piperazine-1-carbonyl)benzoyl)-N3,N4-bis((1S,2R)-2-phenylcyclopropyl)pyrrolidine-3,4-dicarboxamide]",< 6.00
18,"CCCCCCCCCCCCCNC(=O)[C@@H]1CN(C(=O)c2ccc(C(=O)N3C[C@@H](C(=O)N[C@H]4C[C@@H]4c4ccccc4)[C@H](C(=O)N[C@H]4C[C@@H]4c4ccccc4)C3)cc2)CCN1C(C)=O [Compound 254, (3S,4S)-1-(4-((S)-4-acetyl-3-(tridecylcarbamoyl)piperazine-1-carbonyl)benzoyl)-N3,N4-bis((1S,2R)-2-phenylcyclopropyl)pyrrolidine-3,4-dicarboxamide]",< 6.00
19,"CCCCCCCCCCCCNC(=O)[C@@H]1CN(C(=O)c2ccc(C(=O)N3C[C@@H](C(=O)N[C@H]4C[C@@H]4c4ccccc4)[C@H](C(=O)N[C@H]4C[C@@H]4c4ccccc4)C3)cc2)CCN1C(C)=O [Compound 255, (3S,4S)-1-(4-((S)-4-acetyl-3-(dodecylcarbamoyl)piperazine-1-carbonyl)benzoyl)-N3,N4-bis((1S,2R)-2-phenylcyclopropyl)pyrrolidine-3,4-dicarboxamide]",< 6.00
20,"CCCCCCCCCCCNC(=O)[C@@H]1CN(C(=O)c2ccc(C(=O)N3C[C@@H](C(=O)N[C@H]4C[C@@H]4c4ccccc4)[C@H](C(=O)N[C@H]4C[C@@H]4c4ccccc4)C3)cc2)CCN1C(C)=O [Compound 256, (3S,4S)-1-(4-((S)-4-acetyl-3-(undecylcarbamoyl)piperazine-1-carbonyl)benzoyl)-N3,N4-bis((1S,2R)-2-phenylcyclopropyl) pyrrolidine-3,4-dicarboxamide]",< 6.00
